Assay results as given in patent publication US20050164370A1 (priority 2003, published 2005).

Tests used:
[1] = target: T1, cytokinin receptor AHK2 (Arabidopsis thaliana, UniProt Q9C5U2); experiment: Agonist-activity to cytokinin receptor, optical density of TM182-AHK2 liquid culture; format: cell-based, yeast; design: expressed in transfected cells; host or cells: yeast strain TM182 carrying plasmid p415CYC-AHK2 (pHM-1 backbone, CYC1 promoter); conditions: TM182-AHK2, examinee substance 100 μM, DOLU+Glu, 30° C. for 24 hours
T1 sequence (Q9C5U2 1-1176): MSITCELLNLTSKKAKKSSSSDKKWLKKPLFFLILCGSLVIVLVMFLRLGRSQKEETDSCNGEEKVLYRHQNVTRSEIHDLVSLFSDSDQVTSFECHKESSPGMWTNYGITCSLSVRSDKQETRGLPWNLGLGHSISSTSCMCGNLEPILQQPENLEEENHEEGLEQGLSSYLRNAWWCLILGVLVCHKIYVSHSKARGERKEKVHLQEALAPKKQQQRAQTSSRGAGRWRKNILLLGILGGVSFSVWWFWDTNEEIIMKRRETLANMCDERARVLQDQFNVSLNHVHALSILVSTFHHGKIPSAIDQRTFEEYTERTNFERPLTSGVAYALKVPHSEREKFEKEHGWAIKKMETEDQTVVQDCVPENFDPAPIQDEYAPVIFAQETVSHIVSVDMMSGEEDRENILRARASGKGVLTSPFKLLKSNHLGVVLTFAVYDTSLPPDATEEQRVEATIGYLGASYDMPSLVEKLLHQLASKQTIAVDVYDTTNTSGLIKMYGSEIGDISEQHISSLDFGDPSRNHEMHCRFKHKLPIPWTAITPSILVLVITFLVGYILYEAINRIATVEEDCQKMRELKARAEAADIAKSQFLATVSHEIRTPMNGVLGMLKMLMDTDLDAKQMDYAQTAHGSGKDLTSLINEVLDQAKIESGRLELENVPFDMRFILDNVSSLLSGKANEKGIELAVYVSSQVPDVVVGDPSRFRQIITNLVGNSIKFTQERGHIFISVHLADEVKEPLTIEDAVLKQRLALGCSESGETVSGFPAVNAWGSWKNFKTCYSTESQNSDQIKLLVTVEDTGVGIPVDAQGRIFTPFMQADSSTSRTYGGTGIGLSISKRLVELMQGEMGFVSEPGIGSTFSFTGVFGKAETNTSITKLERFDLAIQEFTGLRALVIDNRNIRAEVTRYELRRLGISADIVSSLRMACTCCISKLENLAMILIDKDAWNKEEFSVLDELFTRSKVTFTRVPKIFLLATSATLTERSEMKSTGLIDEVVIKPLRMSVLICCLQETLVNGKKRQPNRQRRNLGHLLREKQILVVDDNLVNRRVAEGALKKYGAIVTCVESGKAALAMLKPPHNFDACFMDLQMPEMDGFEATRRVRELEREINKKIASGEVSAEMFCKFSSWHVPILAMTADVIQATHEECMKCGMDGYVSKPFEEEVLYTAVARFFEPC
Description: (§1) The transformed cells TM182-AHK2, TM182-AHK2Δ and TM182-AHK3 produced in the reference example 1 were inoculated in 200 ml of DOLU+Gal culture media and pre-cultured at 30° C. for 36 hours. The pre-cultured solutions were diluted with DOLU+Glu media as to become 0.100 as the optical density (OD600) and further the resultants were diluted with DOLU+Glu media at a dilution rate of 1/200 to obtain diluted pre-cultured solutions.
(§2) An assay plate was prepared by filling respective wells of a 96-well plate with 20 μl of solutions which were prepared by diluting DMSO solution (10 mM) of each examinee substance with DOLU+Glu medium at a dilution rate of 1/100, said solutions containing each examinee substance to be […]. […]
(§3) The diluted pre-cultured solutions were added in 200 μl each into the respective wells of both assay plates and cultured at 30° C. for 24 hours and then the optical density (OD620) of each well was measured by a plate reader. The agonist-activity of the examinee substances to the cytokinin receptor was detected by comparing the optical density measured in the testing sections to which the examinee substances were added with the optical density measured in the blank sections.

[2] = target: T2, cytokinin receptor AHK2Δ (Arabidopsis thaliana, UniProt Q9C5U2); format: cell-based, yeast; design: added initiator methionine (ATG added at the 5' end) (N); expressed in transfected cells; host or cells: yeast strain TM182 carrying plasmid p415CYC-AHK2Δ (pHM-1 backbone, CYC1 promoter); conditions: TM182-AHK2Δ, examinee substance 100 μM, DOLU+Glu, 30° C. for 24 hours
T2 sequence (Q9C5U2 196-1176): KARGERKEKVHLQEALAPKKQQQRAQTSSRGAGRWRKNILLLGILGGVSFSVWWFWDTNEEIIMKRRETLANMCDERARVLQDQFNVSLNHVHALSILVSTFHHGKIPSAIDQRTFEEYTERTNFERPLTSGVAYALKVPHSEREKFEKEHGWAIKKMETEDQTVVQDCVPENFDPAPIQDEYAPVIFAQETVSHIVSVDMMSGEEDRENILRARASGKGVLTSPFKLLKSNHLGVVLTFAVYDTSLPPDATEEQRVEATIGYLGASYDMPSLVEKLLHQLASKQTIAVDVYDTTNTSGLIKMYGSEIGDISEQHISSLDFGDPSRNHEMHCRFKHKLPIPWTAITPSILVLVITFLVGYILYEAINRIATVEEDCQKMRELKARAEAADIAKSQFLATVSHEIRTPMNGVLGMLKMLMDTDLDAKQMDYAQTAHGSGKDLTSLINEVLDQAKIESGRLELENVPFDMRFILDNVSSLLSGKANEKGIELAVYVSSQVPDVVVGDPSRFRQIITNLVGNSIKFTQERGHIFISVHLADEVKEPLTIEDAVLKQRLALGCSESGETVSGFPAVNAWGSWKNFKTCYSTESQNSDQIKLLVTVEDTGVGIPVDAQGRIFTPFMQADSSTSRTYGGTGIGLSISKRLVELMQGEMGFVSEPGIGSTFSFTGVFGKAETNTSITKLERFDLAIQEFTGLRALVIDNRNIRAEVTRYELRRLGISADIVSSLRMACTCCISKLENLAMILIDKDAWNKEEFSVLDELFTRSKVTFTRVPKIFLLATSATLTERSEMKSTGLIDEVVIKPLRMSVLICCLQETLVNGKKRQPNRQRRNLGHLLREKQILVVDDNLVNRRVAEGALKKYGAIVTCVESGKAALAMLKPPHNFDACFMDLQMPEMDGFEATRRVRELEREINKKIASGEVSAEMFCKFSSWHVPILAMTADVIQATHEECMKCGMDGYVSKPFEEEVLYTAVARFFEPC
Description: as §1, §2, §3

Row | Structure (SMILES) | optical density (OD620) of the culture solution [1] | optical density (OD620) of the culture solution [2]
1 | CC1=CC(=O)CC(C)(C)[C@@]1(O)/C=C/C(C)=C\C(=O)O [Compound A, Abscisic acid] | 0.01 | 0
2 | c1ccc(CNc2ncnc3nc[nH]c23)cc1 [Compound B, 6-Benzyl aminopurine] | 0.45 | 0.89
